Converted amounts (≈) assume the structure as drawn.
Assays:
Test in all cases: MIC, broth microdilution
Salmonella spp. GC 235 = settings: Salmonella, SPP.GC235, Salmonella spp. GC 235
Protocol: Antimicrobial susceptibility testing. The in vitro activities of the antibiotics are determined by the broth microdilution method as recommended by the National Committee for Clinical Laboratory Standards (NCCLS) (1). Mueller-Hinton II broth (MHBII)(BBL Cockeysville, Md.) is the medium employed in the testing procedures. Microtiter plates containing serial dilutions of each antimicrobial agent are inoculated with each organism to yield the appropriate density (10^5 CFU/ml) in a 100 μl final volume. The plates are incubated for 18-22 hours at 35° C. in ambient air.
Representative compounds were first incubated in mouse serum for an hour prior to the in vitro testing against a panel of selected gram-positive and gram-negative bacteria strains. All compounds were also pre-incubated in water for an hour prior to testing as control.

Salmonella spp. GC 566 = settings: Salmonella, SPP.GC566, Salmonella spp. GC 566
S. cholerasius GC 1355 = settings: S. cholerasius GC 1355

## CCCN(CC(=O)Nc1cc(N(C)C)c2c(c1O)C(=O)C1=C(O)[C@]3(O)C(=O)C(C(N)=O)=C(O)[C@@H](N(C)C)[C@@H]3C[C@@H]1C2)C(=O)OCOC(=O)C(C)(C)C [Example 9, ({[(2-{[(5aR,6aS,7S,10aS)-9-(aminocarbonyl)-4,7-bis(dimethylamino)-1,8,10a,11-tetrahydroxy-10,12-dioxo-5,5a,6,6a,7,10,10a,12-octahydrotetracen-2-yl]amino}-2-oxoethyl)(propyl)amino]carbonyl}oxy)methyl pivalate]
Salmonella spp. GC 235; Mouse Serum pre-incubation
  MIC: 1 µg/mL (≈ 1.37 µM)
Salmonella spp. GC 235; Water pre-incubation
  MIC: 8 µg/mL (≈ 11 µM)
Salmonella spp. GC 566; Mouse Serum pre-incubation
  MIC: 2 µg/mL (≈ 2.74 µM)
Salmonella spp. GC 566; Water pre-incubation
  MIC: 64 µg/mL (≈ 87.7 µM)
S. cholerasius GC 1355; Mouse Serum pre-incubation
  MIC: 64 µg/mL (≈ 87.7 µM)
S. cholerasius GC 1355; Water pre-incubation
  MIC: > 64 µg/mL

## CCCN(CC(=O)Nc1cc(N(C)C)c2c(c1O)C(=O)C1=C(O)[C@]3(O)C(=O)C(C(N)=O)=C(O)[C@@H](N(C)C)[C@@H]3C[C@@H]1C2)C(=O)OCOC(=O)C(C)C [Example 10, ({[(2-{[(5aR,6aS,7S,10aS)-9-(aminocarbonyl)-4,7-bis(dimethylamino)-1,8,10a,11-tetrahydroxy-10,12-dioxo-5,5a,6,6a,7,10,10a,12-octahydrotetracen-2-yl]amino}-2-oxoethyl)(propyl)amino]carbonyl}oxy)methyl 2-methylpropanoate]
Salmonella spp. GC 235; Mouse Serum pre-incubation
  MIC: 0.5 µg/mL (≈ 0.699 µM)
Salmonella spp. GC 235; Water pre-incubation
  MIC: 32 µg/mL (≈ 44.7 µM)
Salmonella spp. GC 566; Mouse Serum pre-incubation
  MIC: 2 µg/mL (≈ 2.79 µM)
Salmonella spp. GC 566; Water pre-incubation
  MIC: > 64 µg/mL
S. cholerasius GC 1355; Mouse Serum pre-incubation
  MIC: 16 µg/mL (≈ 22.4 µM)
S. cholerasius GC 1355; Water pre-incubation
  MIC: > 64 µg/mL

## CCCN(CC(=O)Nc1cc(N(C)C)c2c(c1O)C(=O)C1=C(O)[C@]3(O)C(=O)C(C(N)=O)=C(O)[C@@H](N(C)C)[C@@H]3C[C@@H]1C2)C(=O)OCOC(=O)Cc1ccccc1 [Example 11, ({[(2-{[(5aR,6aS,7S,10aS)-9-(aminocarbonyl)-4,7-bis(dimethylamino)-1,8,10a,11′-tetrahydroxy-10,12-dioxo-5,5a,6,6a,7,10,10a,12-octahydrotetracen-2-yl]amino}-2-oxoethyl)(propyl)amino]carbonyl}oxy)methyl phenylacetate]
Salmonella spp. GC 235; Mouse Serum pre-incubation
  MIC: 0.5 µg/mL (≈ 0.655 µM)
Salmonella spp. GC 235; Water pre-incubation
  MIC: 64 µg/mL (≈ 83.8 µM)
Salmonella spp. GC 566; Mouse Serum pre-incubation
  MIC: 2 µg/mL (≈ 2.62 µM)
Salmonella spp. GC 566; Water pre-incubation
  MIC: > 64 µg/mL
S. cholerasius GC 1355; Mouse Serum pre-incubation
  MIC: 32 µg/mL (≈ 41.9 µM)
S. cholerasius GC 1355; Water pre-incubation
  MIC: > 64 µg/mL

## CCCCN(CC(=O)Nc1cc(N(C)C)c2c(c1O)C(=O)C1=C(O)[C@]3(O)C(=O)C(C(N)=O)=C(O)[C@@H](N(C)C)[C@@H]3C[C@@H]1C2)C(=O)OCOC(=O)Cc1ccccc1 [Example 12, ({[(2-{[(5aR,6aS,7S,10aS)-9-(aminocarbonyl)-4,7-bis(dimethylamino)-1,8,10a,11-tetrahydroxy-10,12-dioxo-5,5a,6,6a,7,10,10a,12-octahydrotetracen-2-yl]amino}-2-oxoethyl)(butyl)amino]carbonyl}oxy)methyl phenylacetate]
Salmonella spp. GC 235; Mouse Serum pre-incubation
  MIC: 1 µg/mL (≈ 1.29 µM)
Salmonella spp. GC 235; Water pre-incubation
  MIC: 64 µg/mL (≈ 82.3 µM)
Salmonella spp. GC 566; Mouse Serum pre-incubation
  MIC: 4 µg/mL (≈ 5.14 µM)
Salmonella spp. GC 566; Water pre-incubation
  MIC: > 64 µg/mL
S. cholerasius GC 1355; Mouse Serum pre-incubation
  MIC: 16 µg/mL (≈ 20.6 µM)
S. cholerasius GC 1355; Water pre-incubation
  MIC: > 64 µg/mL

## CCCCN(CC(=O)Nc1cc(N(C)C)c2c(c1O)C(=O)C1=C(O)[C@]3(O)C(=O)C(C(N)=O)=C(O)[C@@H](N(C)C)[C@@H]3C[C@@H]1C2)C(=O)OCOC(=O)C(C)(C)C [Example 13, ({[(2-{[(5aR,6aS,7S,10aS)-9-(aminocarbonyl)-4,7-bis(dimethylamino)-1,8,10a,11-tetrahydroxy-10,12-dioxo-5,5a,6,6a,7,10,10a,12-octahydrotetracen-2-yl]amino}-2-oxoethyl)(butyl)amino]carbonyl}oxy)methyl pivalate]
Salmonella spp. GC 235; Mouse Serum pre-incubation
  MIC: 2 µg/mL (≈ 2.69 µM)
Salmonella spp. GC 235; Water pre-incubation
  MIC: 16 µg/mL (≈ 21.5 µM)
Salmonella spp. GC 566; Mouse Serum pre-incubation
  MIC: 8 µg/mL (≈ 10.8 µM)
Salmonella spp. GC 566; Water pre-incubation
  MIC: 64 µg/mL (≈ 86 µM)
S. cholerasius GC 1355; Mouse Serum pre-incubation
  MIC: 16 µg/mL (≈ 21.5 µM)
S. cholerasius GC 1355; Water pre-incubation
  MIC: > 64 µg/mL

## CCCN(CC(=O)Nc1cc(N(C)C)c2c(c1O)C(=O)C1=C(O)[C@]3(O)C(=O)C(C(N)=O)=C(O)[C@@H](N(C)C)[C@@H]3C[C@@H]1C2)C(=O)OCc1ccccc1 [Example 14, benzyl 2-{[(5aR,6aS,7S,10aS)-9-(aminocarbonyl)-4,7-bis(dimethylamino)-1,8,10a,11-tetrahydroxy-10,12-dioxo-5,5a,6,6a,7,10,10a,12-octahydrotetracen-2-yl]amino}-2-oxoethyl(propyl)carbamate]
Salmonella spp. GC 235; Mouse Serum pre-incubation
  MIC: > 64 µg/mL
Salmonella spp. GC 235; Water pre-incubation
  MIC: > 64 µg/mL
Salmonella spp. GC 566; Mouse Serum pre-incubation
  MIC: > 64 µg/mL
Salmonella spp. GC 566; Water pre-incubation
  MIC: > 64 µg/mL
S. cholerasius GC 1355; Mouse Serum pre-incubation
  MIC: > 64 µg/mL
S. cholerasius GC 1355; Water pre-incubation
  MIC: > 64 µg/mL
